Here are results for 2 molecules from patent US9192611B2, “Formulations comprising methylthioninium chloride” (WisTa Laboratories Ltd., priority 2010, dated 2015).

The conditions of series [1]: background statement; cited from earlier work.
Series [2] in a line: Thermodynamic stability of MTC hydrates as a function of RH and temperature. The settings on record: any T and RH; kinetically stable in a certain range.

Turning to `CN(C)c1ccc2nc3ccc(=[N+](C)C)cc-3sc2c1` [Form A, Methylthioninium chloride], the “RH down to which high kinetic stability is observed” value in series [1] is “less than 20%”.
Turning to `CN(C)c1ccc2nc3ccc(=[N+](C)C)cc-3sc2c1` [Form B, Methylthioninium chloride], in series [2], the “Thermodynamic stability, in words” value is listed as “not thermodynamically stable”.
